Experiments:
Assay type in all cases: biochemical
BTK = BTK (Homo sapiens (Human), UniProt Q06187); experiment: BTK kinase test (33P-ATP filter binding); conditions: final ATP 5 μM
Description: Experimental Example 1: BTK Kinase Test […]
(§1) buffer conditions: 20 mM HEPES (pH 7.5), 10 mM MgCl2, 1 mM EGTA, 0.02% Brij35, 0.02 mg/mL BSA, 0.1 mm Na3VO4, 2 mm DTT, 1% DMSO.
(§2) 2.1. Preparing an indicator substrate in a freshly prepared reaction buffer
(§3) 2.2. Delivering the desired cofactor to the above substrate solution
(§4) 2.3. Delivering the indicated kinase to the substrate solution and gently mixing same
(§5) 2.4. Delivering the compounds in DMSO to the kinase reaction mixture using acoustic technology (Echo550)
2.5. Initiating the reaction (final concentration of ATP: 5 μM) by delivering ^33P-ATP (final specific activity: 0.01 μci/μL) to the reaction mixture
(§6) 2.6. Incubating the kinase reaction at room temperature for 120 minutes
(§7) 2.7. Recording the reaction on P81 ion exchange paper (Whatman #3698-915)
(§8) 2.8. Washing the filter widely with 0.75% phosphoric acid
2.9. Measuring the radioactive phosphorylated substrate remaining on the filter paper. […]
the kinase activity data is expressed as the percentage of the remaining kinase activity in a test sample compared to a reaction with a carrier (dimethyl sulfoxide), and IC50 values and curve fitting are obtained using Prism4 software (GraphPad).

EGFR = EGFR (Homo sapiens (Human), UniProt P00533); experiment: EGFR kinase test (33P-ATP filter binding); conditions: for The ratio of the activities of EGFR and BTK: EGFR IC50 / BTK IC50 (first figure of the cell); for IC50: final ATP 2 μM, 120 minutes at room temperature
Description: (§9) Experimental Example 2: EGFR, ITK and TEC Kinase Test
as §1, §2, §3, §4, §5
(§10) 2.5. Initiating the reaction (final concentration of ATP: 2 μM, 5 μM and 5 μM respectively) by delivering ^33P-ATP (final specific activity: 0.01 μci/μL) to the reaction mixture
as §6, §7, §8
(§11) 2.9. Measuring the radioactive phosphorylated substrate remaining on the filter paper.
(§12) 3. Data analysis: the kinase activity data is expressed as the percentage of the remaining kinase activity in a test sample compared to a reaction with a carrier (dimethyl sulfoxide), and IC50 values and curve fitting are obtained using Prism4 software (GraphPad).

ITK = ITK (Homo sapiens (Human), UniProt Q08881); experiment: ITK kinase test (33P-ATP filter binding); conditions: for The ratio of the activities of ITK and BTK: ITK IC50 / BTK IC50 (second figure of the cell); for IC50: final ATP 5 μM
Description: as §9, §1, §2, §3, §4, §5, §10, §6, §7, §8, §11, §12

TEC = TEC (Homo sapiens (Human), UniProt P42680); experiment: TEC kinase test (33P-ATP filter binding); conditions: for The ratio of the activities of TEC and BTK: TEC IC50 / BTK IC50 (third figure of the cell); for IC50: final ATP 5 μM, 120 minutes at room temperature
Description: as §9, §1, §2, §3, §4, §5, §10, §6, §7, §8, §11, §12

[1] = Table 1, 120 minutes at room temperature

Chain of TEC (P42680 whole entry): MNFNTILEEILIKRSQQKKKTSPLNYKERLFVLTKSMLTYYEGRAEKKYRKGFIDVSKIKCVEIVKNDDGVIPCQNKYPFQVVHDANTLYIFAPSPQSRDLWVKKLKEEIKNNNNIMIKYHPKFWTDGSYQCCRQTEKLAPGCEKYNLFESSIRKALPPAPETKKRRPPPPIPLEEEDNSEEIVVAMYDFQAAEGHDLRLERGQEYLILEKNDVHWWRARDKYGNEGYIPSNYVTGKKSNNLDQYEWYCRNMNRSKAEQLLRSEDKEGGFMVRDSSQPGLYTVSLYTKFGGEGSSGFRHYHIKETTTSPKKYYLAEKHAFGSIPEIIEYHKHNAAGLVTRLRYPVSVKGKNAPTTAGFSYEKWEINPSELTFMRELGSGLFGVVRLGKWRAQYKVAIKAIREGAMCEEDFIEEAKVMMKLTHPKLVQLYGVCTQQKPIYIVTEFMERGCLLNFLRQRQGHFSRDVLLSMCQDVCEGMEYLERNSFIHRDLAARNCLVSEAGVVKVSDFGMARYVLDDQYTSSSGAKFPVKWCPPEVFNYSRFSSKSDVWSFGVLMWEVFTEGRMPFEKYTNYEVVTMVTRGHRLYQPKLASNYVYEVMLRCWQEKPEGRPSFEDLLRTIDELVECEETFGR
Chain of BTK (Q06187 whole entry): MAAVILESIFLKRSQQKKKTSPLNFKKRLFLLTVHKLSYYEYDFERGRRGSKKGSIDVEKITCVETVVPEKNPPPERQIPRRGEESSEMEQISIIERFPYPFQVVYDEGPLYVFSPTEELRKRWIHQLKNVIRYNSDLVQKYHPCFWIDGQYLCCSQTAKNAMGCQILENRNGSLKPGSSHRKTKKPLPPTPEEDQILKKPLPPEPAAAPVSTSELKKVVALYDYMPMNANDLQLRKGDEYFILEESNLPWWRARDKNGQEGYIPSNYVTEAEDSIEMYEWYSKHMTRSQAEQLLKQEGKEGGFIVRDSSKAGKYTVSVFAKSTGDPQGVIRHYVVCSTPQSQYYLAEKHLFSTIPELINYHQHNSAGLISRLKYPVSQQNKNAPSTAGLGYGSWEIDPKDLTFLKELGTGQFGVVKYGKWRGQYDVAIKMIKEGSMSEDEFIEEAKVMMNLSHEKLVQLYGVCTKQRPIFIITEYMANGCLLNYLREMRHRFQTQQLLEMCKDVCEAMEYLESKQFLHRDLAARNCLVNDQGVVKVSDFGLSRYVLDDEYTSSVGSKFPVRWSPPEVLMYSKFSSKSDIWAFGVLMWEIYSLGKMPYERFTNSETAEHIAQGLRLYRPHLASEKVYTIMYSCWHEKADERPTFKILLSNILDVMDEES
Chain of ITK (Q08881 whole entry): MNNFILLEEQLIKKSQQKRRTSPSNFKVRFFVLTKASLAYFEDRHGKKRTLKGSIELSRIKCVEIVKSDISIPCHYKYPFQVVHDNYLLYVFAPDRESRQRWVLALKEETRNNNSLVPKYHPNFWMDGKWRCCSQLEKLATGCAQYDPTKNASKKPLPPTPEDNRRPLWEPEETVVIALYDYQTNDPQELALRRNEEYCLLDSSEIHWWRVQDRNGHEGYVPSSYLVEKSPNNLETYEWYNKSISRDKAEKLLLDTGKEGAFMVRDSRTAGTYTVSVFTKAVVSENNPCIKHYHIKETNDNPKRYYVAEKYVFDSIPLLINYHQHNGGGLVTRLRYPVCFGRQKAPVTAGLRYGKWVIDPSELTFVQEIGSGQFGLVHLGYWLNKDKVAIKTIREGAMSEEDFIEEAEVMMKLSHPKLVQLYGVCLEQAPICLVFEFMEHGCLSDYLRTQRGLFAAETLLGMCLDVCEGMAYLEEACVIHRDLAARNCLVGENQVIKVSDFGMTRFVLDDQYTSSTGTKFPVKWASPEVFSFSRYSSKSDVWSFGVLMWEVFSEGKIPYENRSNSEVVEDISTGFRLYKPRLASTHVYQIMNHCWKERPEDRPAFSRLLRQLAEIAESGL
Chain of EGFR (P00533 25-1210): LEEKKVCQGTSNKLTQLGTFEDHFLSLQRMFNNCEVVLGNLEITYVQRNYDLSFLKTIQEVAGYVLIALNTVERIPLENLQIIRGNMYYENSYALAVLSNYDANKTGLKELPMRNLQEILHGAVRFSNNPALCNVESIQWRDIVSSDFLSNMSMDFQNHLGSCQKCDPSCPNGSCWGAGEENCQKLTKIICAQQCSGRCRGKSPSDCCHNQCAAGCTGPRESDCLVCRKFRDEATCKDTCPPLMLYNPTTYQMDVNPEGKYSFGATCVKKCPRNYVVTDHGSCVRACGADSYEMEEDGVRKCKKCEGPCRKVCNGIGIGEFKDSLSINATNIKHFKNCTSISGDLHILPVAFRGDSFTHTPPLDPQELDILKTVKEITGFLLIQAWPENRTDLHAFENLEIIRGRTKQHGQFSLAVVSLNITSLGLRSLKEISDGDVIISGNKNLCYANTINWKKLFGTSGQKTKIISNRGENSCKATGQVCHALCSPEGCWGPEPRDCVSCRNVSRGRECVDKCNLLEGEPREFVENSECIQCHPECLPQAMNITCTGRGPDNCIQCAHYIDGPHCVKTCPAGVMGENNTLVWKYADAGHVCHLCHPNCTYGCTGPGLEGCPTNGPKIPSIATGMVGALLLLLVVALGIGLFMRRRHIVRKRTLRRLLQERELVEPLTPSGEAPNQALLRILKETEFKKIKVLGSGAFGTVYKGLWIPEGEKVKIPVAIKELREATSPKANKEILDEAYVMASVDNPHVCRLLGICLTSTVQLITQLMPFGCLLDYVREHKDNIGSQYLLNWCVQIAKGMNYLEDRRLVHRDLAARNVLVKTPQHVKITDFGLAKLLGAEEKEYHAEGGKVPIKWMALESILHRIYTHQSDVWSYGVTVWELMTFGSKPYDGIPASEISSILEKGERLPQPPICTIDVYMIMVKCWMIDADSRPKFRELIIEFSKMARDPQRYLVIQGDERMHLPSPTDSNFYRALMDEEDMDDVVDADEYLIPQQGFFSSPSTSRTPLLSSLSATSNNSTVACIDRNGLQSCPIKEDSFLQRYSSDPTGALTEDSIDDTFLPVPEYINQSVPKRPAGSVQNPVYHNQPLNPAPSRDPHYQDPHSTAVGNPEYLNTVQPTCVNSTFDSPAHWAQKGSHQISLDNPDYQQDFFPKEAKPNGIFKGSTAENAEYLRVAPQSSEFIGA

For `C=CC(=O)N1CCC[C@@H](c2nn(-c3ccc(Oc4cc(F)cc(F)c4F)cc3)c3cncc(F)c23)C1` (single isomer, unassigned) [Compound 4A], the IC50 (BTK; [1]) was 11 nM, the IC50 (BTK; Table 2 comparison) was 11 nM and the “The ratio of the activities of EGFR and BTK” value (EGFR) was 183 fold. For the same compound, the IC50 (EGFR) was 2020 nM, the “The ratio of the activities of ITK and BTK” value (ITK) was greater than 909 fold and the IC50 (ITK; unit μM) was greater than 10 µM. For the same compound, the “The ratio of the activities of TEC and BTK” value (TEC) was “fold, 15-fold” and the IC50 (TEC) was 169 nM.

`C=CC(=O)N1CCC[C@H](c2nn(-c3ccc(Oc4cc(F)cc(F)c4F)cc3)c3cncc(F)c23)C1` (single isomer, unassigned) [Compound 4B] gave an IC50 (BTK; [1]) of 98.1 nM.

`C=CC(=O)N1CCC[C@@H](c2nn(-c3ccc(Oc4cccc(F)c4F)cc3)c3cncc(F)c23)C1` (single isomer, unassigned) [Compound 5A] was tested, and the IC50 (BTK; [1]) was 31.8 nM.

Compound `C=CC(=O)N1CCO[C@@H](c2nn(-c3ccc(Oc4c(F)cccc4F)cc3)c3cncc(F)c23)C1` [Compound 3A] has an IC50 (BTK; [1]) of 9.58 nM.

In the case of `C=CC(=O)N1CCO[C@H](c2nn(-c3ccc(Oc4c(F)cccc4F)cc3)c3cncc(F)c23)C1` [Compound 3B], the IC50 (BTK; [1]) is reported as 2.7 nM.

With `C=CC(=O)N1CCC[C@@H](c2nn(-c3ccc(Oc4cc(F)ccc4F)cc3)c3cncc(F)c23)C1` [Compound 6A] the IC50 (BTK; [1]) was 9.58 nM, the IC50 (BTK; Table 2 comparison) was 9.58 nM and the “The ratio of the activities of EGFR and BTK” value (EGFR) was 84 fold. The IC50 (EGFR) was 812 nM, the “The ratio of the activities of ITK and BTK” value (ITK) was 764 fold and the IC50 (ITK; 120 minutes at room temperature) was 7.32 µM. The “The ratio of the activities of TEC and BTK” value (TEC) was 4-fold and the IC50 (TEC) was 43.2 nM.

`C=CC(=O)N1CCC[C@H](c2nn(-c3ccc(Oc4cc(F)ccc4F)cc3)c3cncc(F)c23)C1` [Compound 6B] was tested, and the IC50 (BTK; [1]) was 140 nM.
